{"source": "patent EP3717657B1", "about": "“A SYSTEM FOR ASSESSING MICROBIAL SUSCEPTIBILITY TO ANTIBIOTIC AGENTS” (Ascilion AB, priority 2017, dated 2019)", "key": {"[1]": {"system": "Enterococcus faecalis (ATCC 29212)", "experiment": "Antibiotic susceptibility by glucose consumption in culture medium, blood culture bottle inoculum (Example 1);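 as to dC/dT: rate calculated between the 60 and 180 min readings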", "assay_type": "cell-based", "conditions": "for Glucose concentration t=0: 0 minutes; for Glucose concentration t=60: 60 minutes; for Glucose concentration t=120: 120 minutes; for Glucose concentration t=180: 180 minutes; for dC/dT: rate of change in glucose concentration; for Glucose concentration t=240: 240 minutes", "method": "(§1) Strains of Escherichia coli (ATCC 25922), Enterococcus faecalis (ATCC 29212) and Staphylococcus aureus (ATCC 29213) were inoculated in blood culture bottles (SVA, Uppsala, Sweden) and cultivated according to the manufacturer's instructions until positive.\n(§2) Medium from each blood culture bottle was diluted 1:100 with cation adjusted Mueller-Hinton broth (SVA, Uppsala, Sweden) supplemented with glucose to a concentration of 1.0 mg/mL.\n(§3) Table 1: Concentrations of antibiotic agents are given in µg/mL.\n(§4) Glucose concentrations were measured at 0, 60, 120, 180, and 240 minutes using a WaveSense Jazz glucometer (AgaMatrix, Inc., Salem, NH, USA) with accompanying test strips.\n(§5) Susceptibility scores corresponding to MIC values were calculated as described above. A 80% threshold was applied, i.e. the lowest concentration of antibiotic that entailed a rate of change in glucose concentration that was equal to or less than 80% of the reference was selected as the Minimal Inhibitory Concentration. The rate of change was calculated between the measurements at 60 and 180 minutes."}, "[2]": {"system": "Escherichia coli (ATCC 25922)", "experiment": "Antibiotic susceptibility by glucose consumption in culture medium, blood culture bottle inoculum (Example 1)", "assay_type": "cell-based", "conditions": "for Glucose concentration t=60: 60 minutes; for Glucose concentration t=120: 120 minutes; for Glucose concentration t=180: 180 minutes; for dC/dT: rate of change in glucose concentration", "method": "as §1, §2, §3, §4, §5"}}, "data": [{"smiles": "CN[C@H](CC(C)C)C(=O)N[C@H]1C(=O)N[C@@H](CC(N)=O)C(=O)N[C@H]2C(=O)N[C@H]3C(=O)N[C@H](C(=O)N[C@H](C(=O)O)c4cc(O)cc(O)c4-c4cc3ccc4O)[C@H](O)c3ccc(c(Cl)c3)Oc3cc2cc(c3O[C@@H]2O[C@H](CO)[C@@H](O)[C@H](O)[C@H]2O[C@H]2C[C@](C)(N)[C@H](O)[C@H](C)O2)Oc2ccc(cc2Cl)[C@H]1O", "note": "[Vancomycin]", "values": [{"measurement": "F=the rate of change in glucose concentration in relation to the reference", "setting": "[1]; [Ab] 0,5 µg/mL", "result": 82, "unit": "%"}, {"measurement": "Glucose concentration t=0", "setting": "[1]; [Ab] 0,5 µg/mL", "result": 154}, {"measurement": "Glucose concentration t=60", "setting": "[1]; [Ab] 0,5 µg/mL", "result": 155}, {"measurement": "Glucose concentration t=120", "setting": "[1]; [Ab] 0,5 µg/mL", "result": 148}, {"measurement": "Glucose concentration t=180", "setting": "[1]; [Ab] 0,5 µg/mL", "result": 96}, {"measurement": "dC/dT", "setting": "[1]; [Ab] 0,5 µg/mL", "result": 30}, {"measurement": "F=the rate of change in glucose concentration in relation to the reference", "setting": "[1]; [Ab] 0,25 µg/mL", "result": 82, "unit": "%"}, {"measurement": "Glucose concentration t=0", "setting": "[1]; [Ab] 0,25 µg/mL", "result": 143}, {"measurement": "Glucose concentration t=60", "setting": "[1]; [Ab] 0,25 µg/mL", "result": 155}, {"measurement": "Glucose concentration t=120", "setting": "[1]; [Ab] 0,25 µg/mL", "result": 146}, {"measurement": "Glucose concentration t=180", "setting": "[1]; [Ab] 0,25 µg/mL", "result": 96}, {"measurement": "dC/dT", "setting": "[1]; [Ab] 0,25 µg/mL", "result": 30}, {"measurement": "F=the rate of change in glucose concentration in relation to the reference", "setting": "[1]; [Ab] 1 µg/mL", "result": 75, "unit": "%"}, {"measurement": "Glucose concentration t=0", "setting": "[1]; [Ab] 1 µg/mL", "result": 151}, {"measurement": "Glucose concentration t=60", "setting": "[1]; [Ab] 1 µg/mL", "result": 164}, {"measurement": "Glucose concentration t=120", "setting": "[1]; [Ab] 1 µg/mL", "result": 153}, {"measurement": "Glucose concentration t=180", "setting": "[1]; [Ab] 1 µg/mL", "result": 110}, {"measurement": "dC/dT", "setting": "[1]; [Ab] 1 µg/mL", "result": 27}, {"measurement": "F=the rate of change in glucose concentration in relation to the reference", "setting": "[1]; [Ab] 2 µg/mL", "result": 29, "unit": "%"}, {"measurement": "Glucose concentration t=0", "setting": "[1]; [Ab] 2 µg/mL", "result": 147}, {"measurement": "Glucose concentration t=60", "setting": "[1]; [Ab] 2 µg/mL", "result": 160}, {"measurement": "Glucose concentration t=120", "setting": "[1]; [Ab] 2 µg/mL", "result": 152}, {"measurement": "Glucose concentration t=180", "setting": "[1]; [Ab] 2 µg/mL", "result": 139}, {"measurement": "Glucose concentration t=240", "setting": "[1]; [Ab] 2 µg/mL", "result": 94}, {"measurement": "dC/dT", "setting": "[1]; [Ab] 2 µg/mL", "result": 11}, {"measurement": "F=the rate of change in glucose concentration in relation to the reference", "setting": "[1]; [Ab] 4 µg/mL", "result": 19, "unit": "%"}, {"measurement": "Glucose concentration t=0", "setting": "[1]; [Ab] 4 µg/mL", "result": 147}, {"measurement": "Glucose concentration t=60", "setting": "[1]; [Ab] 4 µg/mL", "result": 162}, {"measurement": "Glucose concentration t=120", "setting": "[1]; [Ab] 4 µg/mL", "result": 153}, {"measurement": "Glucose concentration t=180", "setting": "[1]; [Ab] 4 µg/mL", "result": 148}, {"measurement": "Glucose concentration t=240", "setting": "[1]; [Ab] 4 µg/mL", "result": 149}, {"measurement": "dC/dT", "setting": "[1]; [Ab] 4 µg/mL", "result": 7}, {"measurement": "F=the rate of change in glucose concentration in relation to the reference", "setting": "[1]; [Ab] 8 µg/mL", "result": 7, "unit": "%"}, {"measurement": "Glucose concentration t=0", "setting": "[1]; [Ab] 8 µg/mL", "result": 150}, {"measurement": "Glucose concentration t=60", "setting": "[1]; [Ab] 8 µg/mL", "result": 156}, {"measurement": "Glucose concentration t=120", "setting": "[1]; [Ab] 8 µg/mL", "result": 146}, {"measurement": "Glucose concentration t=180", "setting": "[1]; [Ab] 8 µg/mL", "result": 151}, {"measurement": "Glucose concentration t=240", "setting": "[1]; [Ab] 8 µg/mL", "result": 145}, {"measurement": "dC/dT", "setting": "[1]; [Ab] 8 µg/mL", "result": 3}, {"measurement": "F=the rate of change in glucose concentration in relation to the reference", "setting": "[1]; [Ab] 0,125 µg/mL", "result": 83, "unit": "%"}, {"measurement": "Glucose concentration t=0", "setting": "[1]; [Ab] 0,125 µg/mL", "result": 148}, {"measurement": "Glucose concentration t=60", "setting": "[1]; [Ab] 0,125 µg/mL", "result": 154}, {"measurement": "Glucose concentration t=120", "setting": "[1]; [Ab] 0,125 µg/mL", "result": 149}, {"measurement": "Glucose concentration t=180", "setting": "[1]; [Ab] 0,125 µg/mL", "result": 94}, {"measurement": "dC/dT", "setting": "[1]; [Ab] 0,125 µg/mL", "result": 30}, {"measurement": "F=the rate of change in glucose concentration in relation to the reference", "setting": "[1]; [Ab] 0,0625 µg/mL", "result": 93, "unit": "%"}, {"measurement": "Glucose concentration t=0", "setting": "[1]; [Ab] 0,0625 µg/mL", "result": 145}, {"measurement": "Glucose concentration t=60", "setting": "[1]; [Ab] 0,0625 µg/mL", "result": 156}, {"measurement": "Glucose concentration t=120", "setting": "[1]; [Ab] 0,0625 µg/mL", "result": 139}, {"measurement": "Glucose concentration t=180", "setting": "[1]; [Ab] 0,0625 µg/mL", "result": 89}, {"measurement": "dC/dT", "setting": "[1]; [Ab] 0,0625 µg/mL", "result": 34}, {"measurement": "F=the rate of change in glucose concentration in relation to the reference", "setting": "[2]; [Ab] 0,5 µg/mL", "result": 65, "unit": "%"}, {"measurement": "Glucose concentration t=60", "setting": "[2]; [Ab] 0,5 µg/mL", "result": 149}, {"measurement": "Glucose concentration t=120", "setting": "[2]; [Ab] 0,5 µg/mL", "result": 145}, {"measurement": "Glucose concentration t=180", "setting": "[2]; [Ab] 0,5 µg/mL", "result": 68}, {"measurement": "dC/dT", "setting": "[2]; [Ab] 0,5 µg/mL", "result": 41}, {"measurement": "F=the rate of change in glucose concentration in relation to the reference", "setting": "[2]; [Ab] 0,25 µg/mL", "result": 68, "unit": "%"}, {"measurement": "Glucose concentration t=60", "setting": "[2]; [Ab] 0,25 µg/mL", "result": 150}, {"measurement": "Glucose concentration t=120", "setting": "[2]; [Ab] 0,25 µg/mL", "result": 145}, {"measurement": "Glucose concentration t=180", "setting": "[2]; [Ab] 0,25 µg/mL", "result": 66}, {"measurement": "dC/dT", "setting": "[2]; [Ab] 0,25 µg/mL", "result": 42}, {"measurement": "F=the rate of change in glucose concentration in relation to the reference", "setting": "[2]; [Ab] 1 µg/mL", "result": 73, "unit": "%"}, {"measurement": "Glucose concentration t=60", "setting": "[2]; [Ab] 1 µg/mL", "result": 155}, {"measurement": "Glucose concentration t=120", "setting": "[2]; [Ab] 1 µg/mL", "result": 149}, {"measurement": "Glucose concentration t=180", "setting": "[2]; [Ab] 1 µg/mL", "result": 65}, {"measurement": "dC/dT", "setting": "[2]; [Ab] 1 µg/mL", "result": 45}, {"measurement": "F=the rate of change in glucose concentration in relation to the reference", "setting": "[2]; [Ab] 2 µg/mL", "result": 65, "unit": "%"}, {"measurement": "Glucose concentration t=60", "setting": "[2]; [Ab] 2 µg/mL", "result": 147}, {"measurement": "Glucose concentration t=120", "setting": "[2]; [Ab] 2 µg/mL", "result": 151}, {"measurement": "Glucose concentration t=180", "setting": "[2]; [Ab] 2 µg/mL", "result": 67}, {"measurement": "dC/dT", "setting": "[2]; [Ab] 2 µg/mL", "result": 40}, {"measurement": "F=the rate of change in glucose concentration in relation to the reference", "setting": "[2]; [Ab] 4 µg/mL", "result": 69, "unit": "%"}, {"measurement": "Glucose concentration t=60", "setting": "[2]; [Ab] 4 µg/mL", "result": 147}, {"measurement": "Glucose concentration t=120", "setting": "[2]; [Ab] 4 µg/mL", "result": 145}, {"measurement": "Glucose concentration t=180", "setting": "[2]; [Ab] 4 µg/mL", "result": 61}, {"measurement": "dC/dT", "setting": "[2]; [Ab] 4 µg/mL", "result": 43}, {"measurement": "F=the rate of change in glucose concentration in relation to the reference", "setting": "[2]; [Ab] 8 µg/mL", "result": 87, "unit": "%"}, {"measurement": "Glucose concentration t=60", "setting": "[2]; [Ab] 8 µg/mL", "result": 159}, {"measurement": "Glucose concentration t=120", "setting": "[2]; [Ab] 8 µg/mL", "result": 147}, {"measurement": "Glucose concentration t=180", "setting": "[2]; [Ab] 8 µg/mL", "result": 51}, {"measurement": "dC/dT", "setting": "[2]; [Ab] 8 µg/mL", "result": 54}, {"measurement": "F=the rate of change in glucose concentration in relation to the reference", "setting": "[2]; [Ab] 0,125 µg/mL", "result": 71, "unit": "%"}, {"measurement": "Glucose concentration t=60", "setting": "[2]; [Ab] 0,125 µg/mL", "result": 153}, {"measurement": "Glucose concentration t=120", "setting": "[2]; [Ab] 0,125 µg/mL", "result": 154}, {"measurement": "Glucose concentration t=180", "setting": "[2]; [Ab] 0,125 µg/mL", "result": 65}, {"measurement": "dC/dT", "setting": "[2]; [Ab] 0,125 µg/mL", "result": 44}, {"measurement": "F=the rate of change in glucose concentration in relation to the reference", "setting": "[2]; [Ab] 0,0625 µg/mL", "result": 67, "unit": "%"}, {"measurement": "Glucose concentration t=60", "setting": "[2]; [Ab] 0,0625 µg/mL", "result": 148}, {"measurement": "Glucose concentration t=120", "setting": "[2]; [Ab] 0,0625 µg/mL", "result": 144}, {"measurement": "Glucose concentration t=180", "setting": "[2]; [Ab] 0,0625 µg/mL", "result": 65}, {"measurement": "dC/dT", "setting": "[2]; [Ab] 0,0625 µg/mL", "result": 42}]}]}
